Results taken from paper PMC3412845, “Waking Action of Ursodeoxycholic Acid (UDCA) Involves Histamine and GABAA Receptor Block” (PLoS ONE, 2012).

How the values were obtained:
HDC−/− mice = test: Polygraphic (EEG/EMG) sleep-wake recording in histamine-deficient mice; format: in vivo, mouse
Description: Animal experiments were conducted according to the Animal Protection Law of the Federal Republic of Germany and the local guidelines (Bezirksregierung Duesseldorf) and were in accordance with the European Communities Council directive regarding care and use of animals for experimental procedures (86/609/EEC). The general protocol of sleep-wake recording and experiment in the mouse was approved by the ethic committee of Claude Bernard University of Lyon. All efforts were made to minimize the number of animals and their suffering. At the age of 12 weeks and with a body weight of 30±2 g HDC wild type and knockout mice used for EEG and sleep-wake studies were chronically implanted, under deep gas anesthesia using isoflurane (2%, 200 ml/min) and a TEM anesthesia system (Bordeaux, France), with six cortical electrodes (gold-plated tinned copper wire, Ø = 0.4 mm, Filotex, Draveil, France) and three neck muscle electrodes (fluorocarbon-coated gold-plated stainless steel wire, Ø = 0.03 mm, Cooner Wire Chatworth, CA, U.S.A.) to record the electroencephalogram (EEG) and electromyogram (EMG) and to monitor the sleep-wake cycle. Finally, the electrode assembly was anchored and fixed to the skull with Super-Bond (Sun Medical Co., Shiga, Japan) and dental cement. This implantation allows stable and long-lasting polygraphic recordings.
After surgery, the animals were housed individually in barrels placed in an insulated sound-proof recording room maintained at an ambient temperature of 22±1°C and on a 12 h light/dark cycle (lights-on at 7 a.m.), standard food and water being available ad libitum. After a 7-days recovery period, mice were habituated to the recording cable for 7 days before polygraphic recordings were started. Cortical EEG (contralateral frontoparietal leads) and EMG signals were amplified, digitized with a resolution of 256 and 128 Hz, respectively, and computed on a CED 1401 Plus (Cambridge, UK). Using a Spike2 script and with the assistance of spectral analysis using the fast Fourier transform, polygraphic records were visually scored by 30-sec epochs for wakefulness (W), slow wave sleep (SWS), and paradoxical sleep (PS) according to previously described criteria validated for mice.
Animals were subjected to 12 h sleep-wake recordings following administration of URSOFALK (clinically used UDCA, 32 mg/kg) through the oral route (per os) at 10 a.m. (during the sleepy period) or at 7 p.m. (during the active period). Each animal received twice single dose of UDCA and twice equal volume of vehicle. There was an interval of 7 days between any two administrations. UDCA or vehicle was applied at random. The waking, slow wave sleep or paradoxical sleep amounts were compared between vehicle and UCDA within the same animal, the differences being averaged within the groups. […]

TMN neurons = test: Firing of TMN neurons recorded in hypothalamic slices; format: cell-based, mouse; details: UDCA 100 µM, n = 10
Description: Recordings from histaminergic neurons in male Wistar rat (22–26 day old) or 30–60 day old mouse (SV129, histidine decarboxylase deficient HDC−/− or their wild type littermates) hypothalamic slices were performed as previously described. Slices were obtained between 9 and 11 a.m. In the beginning of whole-cell voltage clamp recordings TMN neurons were identified with the help of DIC microscopy and electrophysiological criteria as previously described. Inhibitory postsynaptic currents (IPSCs) were evoked by local stimulation through a bipolar stainless-steel stimulating electrode (50 µm; WPI, UK). The stimulation of axonal endings coming to TMN from ventrolateral preoptic area (VLPO) was done as described in [22]. […] Individual neurons were separated by vibrodissociation after brief preincubation with papain from the hypothalamic slices of mice or rats and identified as TMN neurons according to their size and shape. Identification was confirmed post hoc with the single-cell RT-PCR (all data presented in the manuscript were obtained from histidine decarboxylase-expressing neurons), [40]. TMN neurons from HDC−/− mice were identified by the expression of peripherin [16]. […] Membrane potentials were not corrected for liquid junction potential (5.6 mV, calculated with LJPCalc, Barry, 1994). […]

α1β3γ2L GABAA receptors = target: T1, α1β3γ2L GABAA receptors (UniProt P22723+P28472+P62813); test: Patch-clamp of recombinant α1β3γ2L GABAAR in HEK293 cells; format: cell-based, rat α1, human β3, mouse γ2L
T1 construct: expressed in transfected cells; host or cells: HEK293
Description: (§1) HEK 293 cells were obtained from DSM (Deutsche Sammlung von Mikroorganismen und Zellkulturen GmbH, DSM, Braunschweig). They were grown and maintained according to published standard protocols. Briefly, cells were grown in minimal essential medium supplemented with 10% fetal bovine serum, 100units/ml penicillin and streptomycin and 2 mM L-glutamine and splitted once per week. Semiconfluent cells were transfected on the third day after splitting with the help of Lipofectamine 2000 (Invitrogen), recordings were done 48–72 hrs after transfection.
(§2) The GABAAR subunit cDNAs, generously donated by G.Gisselmann (rat α1, mouse γ2L, rat β1, β2 and human β3 [26]) and J.H. Steinbach (rat α1V256S [28] and rat α1Q241L [44]), were subcloned into pcDNA3 (Invitrogen, Karlsruhe, Germany) and applied in a ratio 1∶1∶1 for the α1βxγ2L receptor and 1∶1 for α1β3 or β3γ2L receptors. […] For each receptor type patch clamp recordings were obtained from at least three separate transfections. Whole-cell patch clamp recordings were done in a similar extracellular solution as for the native cells (see above) except that the concentration of MgCl2 was reduced to 1.2 mM. Intracellular electrodes contained 140 mM CsCl (instead of KCl), pH adjusted with CsOH. The voltage was held at −40 mV.

α1β3 GABAA receptors = target: T2, α1β3 GABAA receptors (UniProt P28472+P62813); test: Patch-clamp of recombinant α1β3 GABAAR in HEK293 cells; format: cell-based, rat α1, human β3
T2 construct: expressed in transfected cells; host or cells: HEK293
Description: as §1, §2

[1] = target: T3, homopentameric β3 GABAA receptors (Homo sapiens, UniProt P28472); test: Patch-clamp of β3 homopentameric receptors in HEK293 cells, histamine-evoked currents; format: cell-based; details: histamine 5 mM
T3 construct: expressed in transfected cells; host or cells: HEK293
Description: as §1, §2

[2] = target: T4, β3 homopentameric GABAA receptors (Homo sapiens, UniProt P28472); test: Block of spontaneous openings of β3 homopentameric receptors (outward shift of baseline current); format: cell-based
T4 construct: expressed in transfected cells; host or cells: HEK293
Description: as §1, §2

[3] = design: method as in PMID 11248487; details: volunteers (men), single oral dose ∼12 mg/kg; cited from earlier work
[4] = UDCA 32 mg/kg per os at 7 p.m., vs vehicle
[5] = read-out: IC50 of block of GABA-evoked steady-state currents

T2 sequence (P62813 28-455): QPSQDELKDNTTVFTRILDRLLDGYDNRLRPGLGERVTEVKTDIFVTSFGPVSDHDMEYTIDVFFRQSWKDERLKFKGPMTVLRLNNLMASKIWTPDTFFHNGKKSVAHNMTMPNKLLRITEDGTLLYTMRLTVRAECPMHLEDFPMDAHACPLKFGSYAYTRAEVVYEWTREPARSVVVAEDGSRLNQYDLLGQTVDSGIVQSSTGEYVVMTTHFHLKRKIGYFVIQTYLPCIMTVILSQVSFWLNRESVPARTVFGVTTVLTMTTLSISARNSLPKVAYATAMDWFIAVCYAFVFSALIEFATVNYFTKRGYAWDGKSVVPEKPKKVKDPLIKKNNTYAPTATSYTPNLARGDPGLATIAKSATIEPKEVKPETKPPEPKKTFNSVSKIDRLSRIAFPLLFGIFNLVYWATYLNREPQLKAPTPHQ
T2 sequence (P28472 26-473): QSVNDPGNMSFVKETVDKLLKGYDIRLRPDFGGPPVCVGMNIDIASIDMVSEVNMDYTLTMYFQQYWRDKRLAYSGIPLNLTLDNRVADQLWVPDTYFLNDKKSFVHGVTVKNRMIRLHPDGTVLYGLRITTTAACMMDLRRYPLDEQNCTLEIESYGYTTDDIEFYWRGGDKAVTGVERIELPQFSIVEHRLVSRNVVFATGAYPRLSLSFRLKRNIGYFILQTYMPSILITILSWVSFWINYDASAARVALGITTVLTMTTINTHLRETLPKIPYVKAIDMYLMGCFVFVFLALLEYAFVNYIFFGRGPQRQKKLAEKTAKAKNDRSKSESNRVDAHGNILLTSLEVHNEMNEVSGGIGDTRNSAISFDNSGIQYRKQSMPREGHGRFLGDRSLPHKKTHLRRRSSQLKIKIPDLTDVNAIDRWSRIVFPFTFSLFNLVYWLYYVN
T1 sequence (P62813 28-455): as the sequence (P62813 28-455) above
T1 sequence (P28472 26-473): as the sequence (P28472 26-473) above
T1 sequence (P22723 39-474): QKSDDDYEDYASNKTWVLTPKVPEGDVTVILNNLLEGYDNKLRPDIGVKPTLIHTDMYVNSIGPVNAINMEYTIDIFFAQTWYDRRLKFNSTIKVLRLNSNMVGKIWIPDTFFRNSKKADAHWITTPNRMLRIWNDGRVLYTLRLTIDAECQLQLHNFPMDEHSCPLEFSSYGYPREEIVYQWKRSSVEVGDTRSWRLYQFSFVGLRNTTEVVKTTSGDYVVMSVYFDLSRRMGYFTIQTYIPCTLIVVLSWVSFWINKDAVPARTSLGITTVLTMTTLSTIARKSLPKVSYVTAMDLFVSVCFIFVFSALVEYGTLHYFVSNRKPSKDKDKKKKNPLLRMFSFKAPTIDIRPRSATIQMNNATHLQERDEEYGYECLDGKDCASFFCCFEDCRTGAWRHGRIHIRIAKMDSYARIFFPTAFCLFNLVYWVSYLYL
T3 sequence (P28472 26-473): as the sequence (P28472 26-473) above
T4 sequence (P28472 26-473): as above

In the case of `C[C@H](CCC(=O)O)[C@H]1CC[C@H]2[C@@H]3[C@@H](O)C[C@@H]4C[C@H](O)CC[C@]4(C)[C@H]3CC[C@]12C` [UDCA, ursodeoxycholic acid], the sleep wake states (HDC−/− mice; 32 mg/kg orally at 10 a.m. (quiet period), n = 7) is reported as “did not affect”, the “slow wave sleep (SWS) and paradoxical sleep (PS)” value (HDC−/− mice; [4]) is reported as “tended to be increased” and the total sleep (HDC−/− mice; [4]) is reported as “increased”. The waking (HDC−/− mice; [4]) was “significantly decreased”, the “firing at the end of UDCA application” value (TMN neurons) was 86±5 % of control and the “Hill coefficient nH of UDCA block” value (α1β3γ2L GABAA receptors; maximal GABA) was 0.63. The IC50 (α1β3γ2L GABAA receptors; [5]) was 73 µM, the “Hill coefficient nH of UDCA block” value (α1β3 GABAA receptors; maximal GABA) was 0.65 and the IC50 (α1β3 GABAA receptors; [5]) was 81 µM. The “Hill coefficient nH of UDCA block” value [1] was 0.8, the IC50 ([1]; read-out: IC50 of block of histamine-evoked currents) was 7.4 ± 2 µM and the “additivity of outward currents of maximal UDCA (300, 600 µM) and picrotoxin (25 µM)” value [2] was “not additive”. For the same molecule, the IC50 ([2]; roughly estimated, read-out: half-maximal effect on outward shift of baseline current) was about 100 µM and the “serum peak UDCA concentration” value [3] was about 18 ± 10 µM.
